SMILES strings stand for the structures. Where a name gives a salt, the structure may show the parent alone.

In the assay the target is T1, recombinant guanylate cyclase reporter cell line (Rattus norvegicus, UniProt P19686+P20595).
T1 construct: expressed in transfected cells
T1 sequence (P19686 1-690): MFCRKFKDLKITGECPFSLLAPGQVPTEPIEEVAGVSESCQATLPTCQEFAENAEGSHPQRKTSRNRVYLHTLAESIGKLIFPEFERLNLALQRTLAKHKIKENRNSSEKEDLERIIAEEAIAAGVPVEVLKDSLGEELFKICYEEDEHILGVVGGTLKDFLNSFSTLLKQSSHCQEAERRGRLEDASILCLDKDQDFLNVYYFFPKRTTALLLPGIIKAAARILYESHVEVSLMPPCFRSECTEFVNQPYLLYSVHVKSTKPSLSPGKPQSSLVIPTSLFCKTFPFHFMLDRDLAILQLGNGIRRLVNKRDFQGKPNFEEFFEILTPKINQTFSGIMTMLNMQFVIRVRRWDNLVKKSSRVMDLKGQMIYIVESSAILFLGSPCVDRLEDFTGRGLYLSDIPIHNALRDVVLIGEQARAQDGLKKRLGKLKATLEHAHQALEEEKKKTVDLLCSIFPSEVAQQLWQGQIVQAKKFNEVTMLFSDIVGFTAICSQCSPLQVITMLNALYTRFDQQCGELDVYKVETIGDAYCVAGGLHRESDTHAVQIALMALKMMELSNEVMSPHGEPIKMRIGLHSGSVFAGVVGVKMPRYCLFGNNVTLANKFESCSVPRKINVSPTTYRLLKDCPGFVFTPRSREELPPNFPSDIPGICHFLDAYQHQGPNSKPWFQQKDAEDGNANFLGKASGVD
T1 sequence (P20595 1-619): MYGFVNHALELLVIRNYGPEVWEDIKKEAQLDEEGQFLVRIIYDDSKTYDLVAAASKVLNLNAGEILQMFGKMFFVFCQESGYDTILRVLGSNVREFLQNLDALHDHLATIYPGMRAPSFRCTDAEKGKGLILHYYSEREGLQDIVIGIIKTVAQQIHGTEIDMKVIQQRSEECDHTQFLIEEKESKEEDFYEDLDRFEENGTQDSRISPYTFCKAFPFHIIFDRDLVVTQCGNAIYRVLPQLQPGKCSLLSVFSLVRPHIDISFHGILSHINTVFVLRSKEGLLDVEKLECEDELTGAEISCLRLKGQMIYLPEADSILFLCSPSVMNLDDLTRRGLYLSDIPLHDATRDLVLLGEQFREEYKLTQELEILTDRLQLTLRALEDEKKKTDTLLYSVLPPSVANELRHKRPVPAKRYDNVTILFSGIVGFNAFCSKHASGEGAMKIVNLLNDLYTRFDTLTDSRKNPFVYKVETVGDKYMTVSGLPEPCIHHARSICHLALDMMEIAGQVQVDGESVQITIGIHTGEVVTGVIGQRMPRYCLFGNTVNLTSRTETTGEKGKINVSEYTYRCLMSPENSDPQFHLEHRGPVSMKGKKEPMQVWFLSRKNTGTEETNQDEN
As to the kind of experiment: Effect on a recombinant guanylate cyclase reporter cell line. It is filed as cell-based. The conditions noted are these: MEC = minimum effective concentration; in some cases mean values for individual determinations. How it is done:
B-2. Effect on a Recombinant Guanylate Cyclase Reporter Cell Line
The cellular action of the compounds of the invention is determined using a recombinant guanylate cyclase reporter cell line, as described in F. Wunder et al., Anal. Biochem. 339, 104-112 (2005).
Representative MEC values (MEC=minimum effective concentration) for the compounds of the invention are shown in the table below (in some cases as mean values for individual determinations): […]
Take `Cc1nc2c(OCc3c(F)cccc3F)cccn2c1C(=O)Nc1ccc(C)c2ncccc12` [Example 72]: the MEC worked out at 0.3 µM.
Take `Cc1nc2c(OCc3c(F)cccc3F)cccn2c1C(=O)Nc1cccc(Cl)c1C` [Example 14]: the MEC was 0.3 µM.
The figure for `Cc1n[nH]cc1NC(=O)c1c(C)nc2c(OCc3c(F)cccc3F)cccn12` [Example 3] is 0.3 µM.
The figure for `Cc1ccc(F)c(NC(=O)c2c(C)nc3c(OCc4c(F)cccc4F)cccn23)c1` [Example 9] is 0.3 µM; for `CCn1nccc1NC(=O)c1c(C)nc2c(OCc3c(F)cccc3F)cccn12` [Example 20] it is 1.0 µM.
Take `Cc1ccnc(NC(=O)c2c(C)nc3c(OCc4c(F)cccc4F)cccn23)n1` [Example 126, 8-[(2,6-Difluorobenzyl)oxy]-2-methyl-N-(4-methylpyrimidin-2-yl)imidazo[1,2-a]pyridine-3-carboxamide]: the MEC is 1.0 µM.
The figure for `Cc1nc2c(OCc3c(F)cccc3F)cccn2c1C(=O)Nc1ccnc2ccc(Cl)cc12` [Example 71] is 0.1 µM; for `Cc1nc2c(OCc3c(F)cccc3F)cccn2c1C(=O)Nc1nnc(CCOC(C)C)s1` [Example 83] it is 3.0 µM; for `Cc1nc2c(OCc3c(F)cccc3F)cccn2c1C(=O)Nc1cnn(CC(N)=O)c1` [Example 25, N-[1-(2-amino-2-oxoethyl)-1H-pyrazol-4-yl]-8-[(2,6-difluorobenzyl)oxy]-2-methylimidazo[1,2-a]pyridine-3-carboxamide] it is 3.0 µM.
The figure for `Cc1nc2c(OCc3c(F)cccc3F)cccn2c1C(=O)Nc1cnn(CCOS(N)(=O)=O)c1` [Example 139, 2-{4-[({8-[(2,6-Difluorobenzyl)oxy]-2-methylimidazo[1,2-a]pyridin-3-yl}carbonyl)amino]-1H-pyrazol-1-yl}ethyl sulphamate trifluoroacetate] is 3.0 µM; for `Cc1ccc2c(NC(=O)c3c(C)nc4c(OCc5c(F)cccc5F)cccn34)cccc2n1` [Example 64] it is 0.2 µM.
The figure for `Cc1nc2c(OCc3c(F)cccc3F)cccn2c1C(=O)Nc1ccc(N2CCN(C)CC2)cc1` [Example 96] is 3.0 µM; for `CCOc1cc(NC(=O)c2c(C)nc3c(OCc4c(F)cccc4F)cccn23)cc(C)n1` [Example 102] it is 0.3 µM.
Regarding `Cc1nc2c(OCC3CCCCC3)cccn2c1C(=O)Nc1cccc(CCC(=O)O)c1` [Example 150, 3-[3-({[8-(Cyclohexylmethoxy)-2-methylimidazo[1,2-a]pyridin-3-yl]carbonyl}amino)phenyl]propanoic acid], the MEC was 1.0 µM.
Consider `CCn1nc(C)c(NC(=O)c2c(C)nc3c(OCc4c(F)cccc4F)cccn23)c1C` [Example 38, 8-[(2,6-Difluorobenzyl)oxy]-N-(1-ethyl-3,5-dimethyl-1H-pyrazol-4-yl)-2-methylimidazo[1,2-a]pyridine-3-carboxamide], for which the MEC came out at 1.0 µM.
The figure for `COCCn1cc(NC(=O)c2c(C)nc3c(OCc4c(F)cccc4F)cccn23)cn1` [Example 26, 8-[(2,6-difluorobenzyl)oxy]-N-[1-(2-methoxyethyl)-1H-pyrazol-4-yl]-2-methylimidazo[1,2-a]pyridine-3-carboxamide] is 1.0 µM; for `Cc1nc2c(OCc3c(F)cccc3F)cccn2c1C(=O)Nc1ccc(NCCO)cc1` [Example 98] it is 1.0 µM; for `Cc1ccncc1NC(=O)c1c(C)nc2c(OCc3c(F)cccc3F)cccn12` [Example 93] it is 1.0 µM.
The figure for `Cc1cc(OCc2c(F)cccc2F)c2nc(C)c(C(=O)Nc3cnn(CC(F)(F)F)c3)n2c1` [Example 85] is 0.1 µM; for `Cc1cc(N2CCNCC2)ccc1NC(=O)c1c(C)nc2c(OCc3c(F)cccc3F)cc(Cl)cn12` [Example 108, 6-chloro-8-[(2,6-difluorobenzyl)oxy]-2-methyl-N-[2-methyl-4-(piperazin-1-yl)phenyl]imidazo[1,2-a]pyridine-3-carboxamide] it is 1.0 µM.

Values taken from patent publication US20160362408A1 (Bayer Pharma Aktiengesellschaft, priority 2013, published 2016).
